As a reminder, the IC50 is the concentration that gives 50% inhibition.

SMILES strings stand for the structures.

Here are results for 32 compounds from patent US20240059677A1, “SUBSTITUTED PYRIMIDINE DERIVATIVES AS NICOTINIC ACETYLCHOLINESTERASE RECEPTOR ALPHA 6 MODULATOR” (priority 2020, published 2024).

T1 sequence (Q05901 25-458 V273S): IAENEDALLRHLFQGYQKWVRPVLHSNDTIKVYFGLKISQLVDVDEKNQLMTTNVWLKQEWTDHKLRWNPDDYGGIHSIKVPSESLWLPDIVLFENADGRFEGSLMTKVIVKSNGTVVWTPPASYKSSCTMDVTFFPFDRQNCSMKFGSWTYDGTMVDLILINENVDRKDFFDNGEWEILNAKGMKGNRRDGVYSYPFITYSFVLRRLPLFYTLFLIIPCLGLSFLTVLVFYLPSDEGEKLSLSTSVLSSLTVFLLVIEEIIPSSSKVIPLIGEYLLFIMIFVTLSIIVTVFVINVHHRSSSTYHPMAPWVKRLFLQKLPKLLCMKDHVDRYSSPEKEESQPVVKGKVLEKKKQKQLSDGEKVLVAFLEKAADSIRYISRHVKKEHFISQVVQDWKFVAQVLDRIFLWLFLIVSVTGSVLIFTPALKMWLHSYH
T1 sequence (P17787 26-502, stated change not applied, further chain): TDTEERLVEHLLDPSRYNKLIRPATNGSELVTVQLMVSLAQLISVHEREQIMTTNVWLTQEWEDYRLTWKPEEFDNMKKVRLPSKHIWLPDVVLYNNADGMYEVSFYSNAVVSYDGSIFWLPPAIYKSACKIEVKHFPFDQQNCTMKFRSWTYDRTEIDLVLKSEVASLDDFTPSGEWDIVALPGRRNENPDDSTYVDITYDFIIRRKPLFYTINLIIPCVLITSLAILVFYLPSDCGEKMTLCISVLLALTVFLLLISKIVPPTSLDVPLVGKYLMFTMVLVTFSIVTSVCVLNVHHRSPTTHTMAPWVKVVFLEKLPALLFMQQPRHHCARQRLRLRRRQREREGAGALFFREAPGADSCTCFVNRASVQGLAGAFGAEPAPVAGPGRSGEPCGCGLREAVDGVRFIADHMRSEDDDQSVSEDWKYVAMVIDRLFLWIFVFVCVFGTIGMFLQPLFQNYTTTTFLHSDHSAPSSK
T1 sequence (Q15825+P32297 fused with the stated changes): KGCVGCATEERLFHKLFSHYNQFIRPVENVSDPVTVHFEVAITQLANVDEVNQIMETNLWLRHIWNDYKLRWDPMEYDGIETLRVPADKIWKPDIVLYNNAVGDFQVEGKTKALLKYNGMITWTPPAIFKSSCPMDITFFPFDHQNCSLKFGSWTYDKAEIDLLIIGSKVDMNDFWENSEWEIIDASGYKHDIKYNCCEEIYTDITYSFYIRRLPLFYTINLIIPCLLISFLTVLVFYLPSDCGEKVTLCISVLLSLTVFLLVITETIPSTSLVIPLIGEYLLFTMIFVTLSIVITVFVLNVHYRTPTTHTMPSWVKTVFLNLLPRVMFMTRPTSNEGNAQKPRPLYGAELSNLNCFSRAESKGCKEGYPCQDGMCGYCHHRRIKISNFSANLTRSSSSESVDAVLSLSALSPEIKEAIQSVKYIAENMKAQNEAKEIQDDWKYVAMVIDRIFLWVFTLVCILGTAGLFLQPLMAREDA

One experiment has as its target T1, human nAChRα6-α3 chimera, in addition to β2 and β3^V273S subunits (Homo sapiens, UniProt P32297+Q15825).
T1 construct: expressed in transfected cells
Briefly: fluorescence-based calcium assay: inhibition of nicotine stimulated nAChRα6 activity (FLIPR). As to conditions: HEK cell line stably expressing the receptor; 10 min pre-incubation, nicotine EC80; 10-point curve, duplicate wells; read-out: IC50. As to the method:
The ability of the test compounds to inhibit nicotine stimulated nAChRα6 activity was determined in a fluorescence-based calcium assay. Compound activity was determined using a HEK cell line stably expressing a human nAChRα6-α3 chimera, in addition to β2 and β3^V273S subunits (as in Capelli et al, Br J Pharmacol 163(2): 313-29 2011). In this cell line, nicotine stimulated an increase in intracellular calcium concentration, measured as an increase in fluorescence when cells were incubated with a calcium sensitive dye. Test compounds were pre-incubated with cells prior to nicotine stimulation to detect any reduction in the magnitude of the nicotine response.
The day prior to the assay, compounds were serially diluted in DMSO (200× final assay concentration (FAC)), in 384-well plates which were then stored in the dark at room temperature (RT) until use. Cells were seeded at 20 k/well in black, poly-D-lysine coated, clear bottom 384-well plates and incubated for 4 hours at 37° C., followed by overnight incubation at 30° C. The following day, the DMSO compound plate was diluted 1:20 (10×FAC) in assay buffer (HEPES buffered saline solution with 10 mM HEPES, 0.1% bovine serum albumin, 1 mM probenecid). A nicotine solution was prepared in assay buffer (7×FAC) and dispensed into a 384-well plate. The growth media was removed from the cell plate, replaced with 53 μl calcium dye/well (Calcium 5; Molecular Devices) and the plate incubated at 30° C. for 45 minutes. Test compounds were then added to the cells (7 μl of 10×FAC) and incubated for 10 minutes, after which nicotine EC80 (10 μl of 7×FAC) was added and changes in fluorescence measured using a FLIPR plate reader (Molecular Devices).
Compound activity was examined using a 10-point, half-log concentration-response range and each concentration was tested in duplicate wells.
For the compound `CCN1CCCC1CNc1ncc(-c2ccc(C(F)(F)F)cc2F)c(C)n1` (centres unmarked) [Example 98, N-((1-ethylpyrrolidin-2-yl)methyl)-5-(2-fluoro-4-(trifluoromethyl)phenyl)-4-methyl-pyrimidin-2-amine], the half-maximal inhibitory concentration (IC50) came out at 0.067 µM. On the same count and under the same terms, then `COc1ccc(-c2cnc(NC3CCC(N(C)C)C3)nc2C)c(F)c1` (single isomer, unassigned) [Example 44b, N^1-(5-(2-fluoro-4-methoxyphenyl)-4-methyl-pyrimidin-2-yl)-N^3,N^3-dimethylcyclopentane-1,3-diamine], with 0.088 µM; and `Cc1nc(NC[C@H]2CN(C)CCO2)ncc1-c1ccc(C(F)(F)F)cc1F` (single isomer, unassigned) [Example 108b], with 0.077 µM; and `Cc1nc(NC2CCCC(N(C)C)C2)nnc1-c1ccc(F)cc1F` (single isomer, unassigned) [Example 39b, N^1-(6-(2,4-difluorophenyl)-5-methyl-1,2,4-triazin-3-yl)-N^3,N^3-dimethylcyclohexane-1,3-diamine], with 0.901 µM. Take `COc1ccc(-c2cnc(NC3CCCC(OC)C3)nc2C)c(F)c1` (single isomer, unassigned) [Example 53b, 5-(2-fluoro-4-methoxyphenyl)-N-(3-methoxycyclohexyl)-4-methyl-pyrimidin-2-amine]: the IC50 was 0.734 µM. `COc1ccc(-c2cnc(NC3CCCC(N(C)C)C3)nc2C#N)c(F)c1` (single isomer, unassigned) [Example 56a, 2-((3-(dimethylamino)cyclohexyl)amino)-5-(2-fluoro-4-methoxyphenyl) pyrimidine-4-carbonitrile]: the IC50 stood at 0.133 µM. The same measure, in the same setting: then `Cc1nc(NC(C)C2CCN(C)C2)ncc1-c1ccc(F)cc1F` (single isomer, unassigned) [Example 64a, 5-(2,4-difluorophenyl)-4-methyl-N-(1-(1-methylpyrrolidin-3-yl)ethyl) pyrimidin-2-amine], with 0.09 µM; and `Cc1nc(NCc2cccnc2)ncc1-c1ccc(F)cc1F` [Example 42, 5-(2,4-difluorophenyl)-4-methyl-N-(pyridin-3-ylmethyl)pyrimidin-2-amine], with 1.2 µM; and `COc1ccc(-c2cnc(NC3CCCC(N(C)C)C3)nc2C#N)c(F)c1` (single isomer, unassigned) [Example 56b, 2-((3-(dimethylamino)cyclohexyl)amino)-5-(2-fluoro-4-methoxyphenyl) pyrimidine-4-carbonitrile], with 0.162 µM. Same read-out and setting: then `Cc1nc(NC[C@H]2CCCN2C)ncc1-c1ccc(F)cc1C(F)(F)F` [Example 92a, (R)-5-(4-fluoro-2-(trifluoromethyl)phenyl)-4-methyl-N-((1-methylpyrrolidin-2-yl)methyl)pyrimidin-2-amine], with 0.033 µM; and `Cc1nc(NCC2CCC(C)N2C)ncc1-c1ccc(C(F)(F)F)cc1F` (single isomer, unassigned) [Example 138c, N-(((2*R,5*S)-1,5-dimethylpyrrolidin-2-yl)methyl)-5-(2-fluoro-4-(trifluoromethyl)phenyl)-4-methyl-pyrimidin-2-amine], with 0.069 µM.

Turning to `Cc1nc(NCC2CCC(C)N2C)ncc1-c1ccc(C(F)(F)F)cc1F` (single isomer, unassigned) [Example 138a, N-(((2*R,5*R)-1,5-dimethylpyrrolidin-2-yl)methyl)-5-(2-fluoro-4-(trifluoromethyl)phenyl)-4-methyl-pyrimidin-2-amine], the IC50 was 0.207 µM. Same read-out and setting: then `CN1CCCCC1CNc1ncc(-c2ccc(F)cc2)cn1` (centres unmarked) [Example 8, 5-(4-fluorophenyl)-N-((1-methylpiperidin-2-yl)methyl)pyrimidin-2-amine], with 0.286 µM; and `Cc1nc(N[C@H]2CNC[C@@H]2F)ncc1-c1ccc(C(F)(F)F)cc1F` (relative stereo) [Example 114, N-((trans)-4-fluoropyrrolidin-3-yl)-5-(2-fluoro-4-(trifluoromethyl)phenyl)-4-methyl-pyrimidin-2-amine], with 0.142 µM; and `COc1ccc(-c2nnc(NC3CCCN(C)C3)nc2C)c(F)c1` (single isomer, unassigned) [Example 69a, 6-(2-fluoro-4-methoxyphenyl)-5-methyl-N-(1-methylpiperidin-3-yl)-1,2,4-triazin-3-amine], with 0.436 µM. On the same count and under the same terms, then `COc1ccc(-c2nnc(NCC3CCCN3C)nc2C)c(F)c1` (racemic) [Example 18, 6-(2-fluoro-4-methoxyphenyl)-5-methyl-N-((1-methylpyrrolidin-2-yl)methyl)-1,2,4-triazin-3-amine], with 0.526 µM; and `COc1ccc(-c2cnc(NC3CCN(C(C)C)CC3)nc2C)c(F)c1` [Example 41, 5-(2-fluoro-4-methoxyphenyl)-N-(1-isopropylpiperidin-4-yl)-4-methyl-pyrimidin-2-amine], with 0.081 µM; and `CN(C)C1CCCC(Nc2ncc(-c3ccc(F)cc3)cn2)C1` (centres unmarked) [Example 7, N^1-(5-(4-fluorophenyl)pyrimidin-2-yl)-N^3,N^3-dimethylcyclohexane-1,3-diamine], with 0.59 µM. Take `COc1ccc(-c2nnc(NCC3CCCCN3C)nc2C)c(F)c1` (single isomer, unassigned) [Example 57a, 6-(2-fluoro-4-methoxyphenyl)-5-methyl-N-((1-methylpiperidin-2-yl)methyl)-1,2,4-triazin-3-amine]: the IC50 was 0.139 µM. On the same count and under the same terms, then `Cc1nc(NC[C@H]2CCCN2C)ncc1-c1ccc(OC(F)(F)F)cc1F` [Example 93a, (R)-5-(2-fluoro-4-(trifluoromethoxy)phenyl)-4-methyl-N-((1-methylpyrrolidin-2-yl)methyl)pyrimidin-2-amine], with 0.05 µM. Still for that read-out and setting: as for `Cc1nc(NC2CCN(C(C)C)C2)ncc1-c1ccc(F)cc1F` (centres unmarked) [Example 22, 5-(2,4-difluorophenyl)-N-(1-isopropylpyrrolidin-3-yl)-4-methyl-pyrimidin-2-amine], the figure is 0.05 µM; as for `Cc1nc(NCC2CCCN2C)nnc1-c1ccc(F)cc1F` (single isomer, unassigned) [Example 74a, 6-(2,4-difluorophenyl)-5-methyl-N-((1-methylpyrrolidin-2-yl)methyl)-1,2,4-triazin-3-amine], 0.693 µM. Still for that read-out and setting: then `Cc1nc(NC2CC3(CNC3)C2)ncc1-c1ccc(C(F)(F)F)cc1F` [Example 122, N-(5-(2-fluoro-4-(trifluoromethyl)phenyl)-4-methyl-pyrimidin-2-yl)-2-azaspiro[3.3]heptan-6-amine], with 0.039 µM; and `Cc1nc(NC(C)[C@@H]2CCCN2C)ncc1-c1ccc(C(F)(F)F)cc1F` (single isomer, unassigned) [Example 132b, 5-(2-fluoro-4-(trifluoromethyl)phenyl)-4-methyl-N-((1*S)-1-((2S)-1-methylpyrrolidin-2-yl)ethyl)pyrimidin-2-amine], with 0.097 µM; and `Cc1nc(NC[C@H]2CCCN2)ncc1-c1ccc(C(F)(F)F)cc1F` [Example 102, (R)-5-(2-fluoro-4-(trifluoromethyl)phenyl)-4-methyl-N-(pyrrolidin-2-ylmethyl)pyrimidin-2-amine], with 0.005 µM. In the case of `COc1ccc(F)c(-c2cnc(NCC3COCCN3C)nc2C)c1` (centres unmarked) [Example 61, 5-(2-fluoro-5-methoxyphenyl)-4-methyl-N-((4-methylmorpholin-3-yl)methyl)pyrimidin-2-amine], the IC50 was 0.533 µM.

On to `COc1ccc(-c2cnc(NC3CCN(C)CC3)nc2C)c(F)c1` [Example 40, 5-(2-fluoro-4-methoxyphenyl)-4-methyl-N-(1-methylpiperidin-4-yl) pyrimidin-2-amine], for which the IC50 was found to be 0.068 µM. The same measure, in the same setting: as for `Cc1nc(NCC2CCN(C)C2)ncc1-c1ccc(F)cc1F` (centres unmarked) [Example 13, 5-(2,4-difluorophenyl)-4-methyl-N-((1-methylpyrrolidin-3-yl)methyl) pyrimidin-2-amine], the figure is 0.05 µM; as for `Cc1nc(NCC2CCCCN2C)nnc1-c1ccc(F)cc1F` (centres unmarked) [Example 20, 6-(2,4-difluorophenyl)-5-methyl-N-((1-methylpiperidin-2-yl)methyl)-1,2,4-triazin-3-amine], 0.49 µM; as for `Cc1nc(NC2CC23CCNCC3)ncc1-c1ccc(C(F)(F)F)cc1F` (centres unmarked) [Example 123, N-(5-(2-fluoro-4-(trifluoromethyl)phenyl)-4-methyl-pyrimidin-2-yl)-6-azaspiro[2.5]octan-1-amine], 0.15 µM. As for `Cc1nc(NCCC2CCCN2C)ncc1-c1ccccc1` (centres unmarked) [Example 1, 4-methyl-N-(2-(1-methylpyrrolidin-2-yl)ethyl)-5-phenylpyrimidin-2-amine], the IC50 came to 0.048 µM.

Staying with this experiment, now noted: IC50 (μM), HEK cell line stably expressing the receptor; 10 min pre-incubation, nicotine EC80; 10-point curve, duplicate wells.
Regarding `Cc1nc(NC[C@]2(C)CCCN2C)ncc1-c1ccc(C(F)(F)F)cc1F` [Example 136, (S)—N-((1,2-dimethylpyrrolidin-2-yl)methyl)-5-(2-fluoro-4-(trifluoromethyl)phenyl)-4-methyl-pyrimidin-2-amine], the IC50 was 0.096 µM.
